For one assay, the target named is T1, ITK (Homo sapiens, UniProt Q08881).
T1 construct: purchased Signalchem I13-11G-10
T1 sequence (Q08881 1-620): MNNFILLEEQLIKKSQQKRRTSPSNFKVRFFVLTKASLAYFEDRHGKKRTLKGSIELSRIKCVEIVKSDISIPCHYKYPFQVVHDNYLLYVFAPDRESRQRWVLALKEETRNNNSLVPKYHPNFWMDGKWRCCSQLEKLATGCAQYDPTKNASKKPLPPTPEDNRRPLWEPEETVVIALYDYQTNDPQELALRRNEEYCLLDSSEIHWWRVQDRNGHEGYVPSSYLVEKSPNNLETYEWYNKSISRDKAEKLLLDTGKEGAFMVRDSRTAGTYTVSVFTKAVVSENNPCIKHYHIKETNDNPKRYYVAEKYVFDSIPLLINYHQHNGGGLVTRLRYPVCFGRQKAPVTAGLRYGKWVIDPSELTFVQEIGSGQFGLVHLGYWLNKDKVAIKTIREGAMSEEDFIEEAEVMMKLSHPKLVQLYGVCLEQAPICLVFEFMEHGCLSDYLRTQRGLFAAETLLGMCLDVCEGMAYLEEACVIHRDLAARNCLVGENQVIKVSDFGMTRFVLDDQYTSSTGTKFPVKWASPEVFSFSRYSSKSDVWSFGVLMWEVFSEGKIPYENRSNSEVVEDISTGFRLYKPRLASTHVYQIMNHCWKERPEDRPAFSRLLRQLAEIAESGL
Put plainly: Inhibitory activity against ITK, ADP-Glo Kinase system (Promega). The assay is classed as biochemical. In a few lines: (§1)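 IC50 values were fitted from kinase reactions run for 1 h at 30°C with either 1 mM ATP or ATP at Km (10 µM for BTK, 25 µM for ITK). Reactions used 0.2 µg/µl poly(Glu4,Tyr1), recombinant human enzyme (BTK 10 ng, ITK 4 ng per reaction) in Tris pH 7.5 Mn/Mg buffer with 1% DMSO. ADP formed was read by ADP-Glo luminescence.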
Background: ADP-Glo first removes unused ATP, then detects ADP through luciferase.

The target in a further assay is T2, BTK (Homo sapiens, UniProt Q06187).
T2 construct: purchased Signalchem B10-10H
Put plainly: Inhibitory activity against BTK, ADP-Glo Kinase system (Promega). The assay is classed as biochemical. The gist of the method:
as §1

Where [1] appears, read: 1mM ATP, read-out: ITK IC50(nM) 1mM ATP.
Where [2] appears, read: 1mM ATP, read-out: BTK IC50(nM) 1mM ATP.
Where [3] appears, read: Km ATP (ITK: 25uM), read-out: ITK IC50(nM) Km ATP.
The mark [4] stands for this setting: Km ATP (BTK: 10 uM), read-out: BTK IC50(nM) Km ATP.

Read-outs that look alike come from different tables or passages of the source.

IC50 data for 23 molecules are collected here from patent publication EP4707277A1, “NOVEL HETEROCYCLIC AMINE DERIVATIVES AND PHARMACEUTICAL COMPOSITION COMPRISING SAME” (Daewoong Pharmaceutical Co., Ltd., priority 2023, dated 2024).

T2 sequence (Q06187 whole entry): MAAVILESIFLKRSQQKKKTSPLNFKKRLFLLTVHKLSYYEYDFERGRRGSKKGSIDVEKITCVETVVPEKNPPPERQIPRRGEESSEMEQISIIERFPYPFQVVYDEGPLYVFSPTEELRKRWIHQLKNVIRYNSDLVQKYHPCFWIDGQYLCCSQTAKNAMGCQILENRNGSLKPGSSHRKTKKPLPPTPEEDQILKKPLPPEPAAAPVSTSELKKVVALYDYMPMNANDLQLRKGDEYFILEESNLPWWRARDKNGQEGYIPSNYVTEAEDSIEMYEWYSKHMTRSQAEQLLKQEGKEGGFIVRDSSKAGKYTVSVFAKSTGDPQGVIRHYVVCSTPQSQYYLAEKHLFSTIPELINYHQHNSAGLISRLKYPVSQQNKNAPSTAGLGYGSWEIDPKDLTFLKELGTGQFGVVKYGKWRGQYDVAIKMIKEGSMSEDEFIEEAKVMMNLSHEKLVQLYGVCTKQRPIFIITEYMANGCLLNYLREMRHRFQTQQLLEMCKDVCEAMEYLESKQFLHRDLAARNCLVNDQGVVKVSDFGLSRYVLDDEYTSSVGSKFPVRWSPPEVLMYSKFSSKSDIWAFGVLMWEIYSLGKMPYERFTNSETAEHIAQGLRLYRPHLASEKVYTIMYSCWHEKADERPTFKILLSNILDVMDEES

As for `C=CC(=O)N1C[C@@H](Oc2nc(Nc3ncc(C)s3)cc3c2ccn3CC(F)(F)F)C[C@H]1C` [Example 212, 1-((2R,4S)-2-methyl-4-((6-((5-methylthiazol-2-yl)amino)-1-(2,2,2-trifluoroethyl)-1H-pyrrolo[3,2-c]pyridin-4-yl)oxy)pyrrolidin-1-yl)prop-2-en-1-one], the IC50 at ITK (setting [1]) and on BTK (setting [2]) was at most 20 nM each time.
Turning to `C=CC(=O)N1CC[C@H](COc2nc(Nc3ncc(C)s3)cc3c2ccn3CC(C)C)C1` [Example 216, (S)-1-(3-(((1-isobutyl-6-((5-methylthiazol-2-yl)amino)-1H-pyrrolo[3,2-c]pyridin-4-yl)oxy)methyl)pyrrolidin-1-yl)prop-2-en-1-one], the IC50 (as a rule, the concentration needed to halve the response being measured) on ITK (setting [1]) lay in the range of 100 to 500 nM; at BTK (setting [2]), 20 to 100 nM.
Regarding `C=CC(=O)N1C2C=C(c3nc(Nc4ncc(C)s4)cc4c3ccn4C(C)C)CC1CCC2` (stereo not shown) [Example 37, 1-(3-(1-isopropyl-6-((5-methylthiazol-2-yl)amino)-1H-pyrrolo[3,2-c]pyridin-4-yl)-9-azabicyclo[3.3.1]non-2-en-9-yl)prop-2-en-1-one], the half-inhibitory concentration (IC50) on ITK (setting [1]) and on BTK (setting [2]) was at most 20 nM throughout.
On to `C=CC(=O)N1CC(C)(Oc2nc(Nc3ncc(C)s3)cc3c2ccn3C2CCCC2)C1` [Example 165, 1-(3-((1-cyclopentyl-6-((5-methylthiazol-2-yl)amino)-1H-pyrrolo[3,2-c]pyridin-4-yl)oxy)-3-methylazetidin-1-yl)prop-2-en-1-one], for which the IC50 at ITK (setting [1]) and on BTK (setting [2]) was at most 20 nM each time.
Regarding `C=CC(=O)N1C[C@@H](Oc2nc(Nc3ncc(C)s3)cc3c2ccn3C(C)C)C[C@@H]1C` [Example 88, 1-((2S,4S)-4-((1-isopropyl-6-((5-methylthiazol-2-yl)amino)-1H-pyrrolo[3,2-c]pyridin-4-yl)oxy)-2-methylpyrrolidin-1-yl)prop-2-en-1-one], the half-maximal inhibitory concentration (IC50) at ITK (setting [1]) and on BTK (setting [2]) was at most 20 nM in each case.
With `C=CC(=O)Nc1cc(-c2nc(Nc3ncc(C)s3)cc3c2ccn3C(C)C)c(F)cc1F` [Example 60, N-(2,4-difluoro-5-(1-isopropyl-6-((5-methzylthiazol-2-yl)amino)-1H-pyrrolo[3,2-c]pyridin-4-yl)phenyl)acrylamide], the half-maximal inhibitory concentration (IC50) at ITK (setting [1]), at ITK (setting [3]), on BTK (setting [2]) and at BTK (setting [4]) was at most 20 nM in each case.
Consider `C=CC(=O)N1C[C@@H](OC)C[C@@H]1COc1nc(Nc2ncc(C)s2)cc2c1ccn2C(C)C` [Example 94, 1-((2R,4S)-2-(((1-isopropyl-6-((5-methylthiazol-2-yl)amino)-1H-pyrrolo[3,2-c]pyridin-4-yl)oxy)methyl)-4-methoxypyrrolidin-1-yl)prop-2-en-1-one], for which the IC50 at ITK (setting [1]) and at BTK (setting [2]) was at most 20 nM in each case.
Consider `C=CS(=O)(=O)N1C[C@H](F)[C@H](Oc2nc(Nc3ncc(C)s3)cc3c2ccn3CC(C)C)C1` [Example 228, N-(4-(((3R,4S)-4-fluoro-1-(vinylsulfonyl)pyrrolidin-3-yl)oxy)-1-isobutyl-1H-pyrrolo[3,2-c]pyridin-6-yl)-5-methylthiazol-2-amine], for which the half-maximal inhibitory concentration (IC50) at ITK (setting [1]) and at BTK (setting [2]) was at most 20 nM throughout.
`C=CC(=O)Nc1cccc(-c2nc(Nc3ncc(C)s3)cc3c2ccn3C)c1F` [Example 51, N-(2-fluoro-3-(1-methyl-6-((5-methylthiazol-2-yl)amino)-1H-pyrrolo[3,2-c]pyridin-4-yl)phenyl)acrylamide]: the half-maximal inhibitory concentration (IC50) at ITK (setting [3]) and at BTK (setting [4]) was at most 20 nM in each case.
As to `C=CC(=O)N1CC(F)(F)C[C@@H]1COc1nc(Nc2ncc(C)s2)cc2c1ccn2C(C)C` [Example 93, (R)-1-(4,4-difluoro-2-(((1-isopropyl-6-((5-methylthiazol-2-yl)amino)-1H-pyrrolo[3,2-c]pyridin-4-yl)oxy)methyl)pyrrolidin-1-yl)prop-2-en-1-one], the IC50 on ITK (setting [1]) and at BTK (setting [2]) was at most 20 nM in each case.
On to `C=CC(=O)Nc1cccc(-c2nc(Nc3ncc(C)s3)cc3c2ccn3C)c1` [Example 50, N-(3-(1-methyl-6-((5-methylthiazol-2-yl)amino)-1H-pyrrolo[3,2-c]pyridin-4-yl)phenyl)acrylamide], for which the IC50 on ITK (setting [3]) was 20 to 100 nM; at BTK (setting [4]) it was at most 20 nM.
As for `C=CC(=O)Nc1cc(C)cc(-c2nc(Nc3ncc(C)s3)cc3c2ccn3C)c1` [Example 53, N-(3-methyl-5-(1-methyl-6-((5-methylthiazol-2-yl)amino)-1H-pyrrolo[3,2-c]pyridin-4-yl)phenyl)acrylamide], the concentration for half-maximal inhibition (IC50) is 100 to 500 nM on ITK (setting [3]) and at most 20 nM at BTK (setting [4]).
Turning to `C=CC(=O)N1CC(Oc2nc(Nc3ncc(C)s3)cc3c2ccn3C2CCCC2)C1` [Example 142, 1-(3-((1-cyclopentyl-6-((5-methylthiazol-2-yl)amino)-1H-pyrrolo[3,2-c]pyridin-4-yl)oxy)azetidin-1-yl)prop-2-en-1-one], the IC50 at ITK (setting [1]) and at BTK (setting [2]) was at most 20 nM throughout.
Regarding `C=CC(=O)N1CC[C@H](Oc2nc(Nc3cc(C)ncn3)cc3c2ccn3C(C)C)C1` [Example 101, (S)-1-(3-((1-isopropyl-6-((6-methylpyrimidin-4-yl)amino)-1H-pyrrolo[3,2-c]pyridin-4-yl)oxy)pyrrolidin-1-yl)prop-2-en-1-one], the IC50 was 20 to 100 nM at ITK (setting [1]) and at most 20 nM on BTK (setting [2]).
Taken in the same sequence, the figures for `C=CC(=O)N1CC[C@H](Oc2nc(Nc3ncc(C)s3)cc3c2ccn3CC2CC2)C1` [Example 97, (S)-1-(3-((1-(cyclopropylmethyl)-6-((5-methylthiazol-2-yl)amino)-1H-pyrrolo[3,2-c]pyridin-4-yl)oxy)pyrrolidin-1-yl)prop-2-en-1-one] were at most 20 nM and at most 20 nM.
Turning to `C=CC(=O)Nc1ccc(F)c(-c2nc(Nc3ncc(C)s3)cc3c2ccn3CC(C)C)c1` [Example 63, N-(4-fluoro-3-(1-isobutyl-6-((5-methylthiazol-2-yl)amino)-1H-pyrrolo[3,2-c]pyridin-4-yl)phenyl)acrylamide], the half-inhibitory concentration (IC50) on ITK (setting [1]) was 100 to 500 nM; at ITK (setting [3]), 20 to 100 nM; on BTK (setting [2]) it was 20 to 100 nM; on BTK (setting [4]) it was at most 20 nM.
As to `C=CC(=O)N1CC=C(c2nc(Nc3ncc(C)s3)cc3c2ccn3CC2CCCCC2)CC1` [Example 9, 1-(4-(1-(cyclohexylmethyl)-6-((5-methylthiazol-2-yl)amino)-1H-pyrrolo[3,2-c]pyridin-4-yl)-3,6-dihydropyridin-1(2H)-yl)prop-2-en-1-one], the half-inhibitory concentration (IC50) on ITK (setting [3]) and on BTK (setting [4]) was at most 20 nM throughout.
Turning to `C=CC(=O)N1CC=C(c2nc(Nc3ncc(C)s3)cc3c2ccn3Cc2ccccc2)CC1` [Example 15, 1-(4-(1-benzyl-6-((5-methylthiazol-2-yl)amino)-1H-pyrrolo[3,2-c]pyridin-4-yl)-3,6-dihydropyridin-1(2H)-yl)prop-2-en-1-one], the IC50 at ITK (setting [3]) and on BTK (setting [4]) was at most 20 nM each time.
Consider `C=CC(=O)N1CC=C(c2nc(Nc3cc(OC)ncn3)cc3c2ccn3C(C)C)CC1` [Example 46, 1-(4-(1-isopropyl-6-((6-methoxypyrimidin-4-yl)amino)-1H-pyrrolo[3,2-c]pyridin-4-yl)-3,6-dihydropyridin-1(2H)-yl)prop-2-en-1-one], for which the 50% inhibitory concentration (IC50) at ITK (setting [1]) was 100 to 500 nM; on BTK (setting [2]), at most 20 nM.
For `C=CC(=O)N1C[C@@H](Oc2nc(Nc3ncc(C)s3)cc3c2ccn3CC(C)C)C[C@H]1C` [Example 96, 1-((2R,4S)-4-((1-isobutyl-6-((5-methylthiazol-2-yl)amino)-1H-pyrrolo[3,2-c]pyridin-4-yl)oxy)-2-methylpyrrolidin-1-yl)prop-2-en-1-one], the IC50 on ITK (setting [1]) and at BTK (setting [2]) was at most 20 nM in each case.
Consider `C=CC(=O)N1CC=C(c2nc(Nc3ncc(C)s3)cc3c2ccn3CC(F)F)CC1` [Example 12, 1-(4-(1-(2,2-difluoroethyl)-6-((5-methylthiazol-2-yl)amino)-1H-pyrrolo[3,2-c]pyridin-4-yl)-3,6-dihydropyridin-1(2H)-yl)prop-2-en-1-one], for which the IC50 on ITK (setting [1]), on ITK (setting [3]), on BTK (setting [2]) and at BTK (setting [4]) was at most 20 nM in each case.
Take `C=CC(=O)N1CC[C@@H](Oc2nc(Nc3ncc(C)s3)cc3c2ccn3CC(C)C)C1` (stereo in doubt) [Example 82, (R)-1-(3-((1-isobutyl-6-((5-methylthiazol-2-yl)amino)-1H-pyrrolo[3,2-c]pyridin-4-yl)oxy)pyrrolidin-1-yl)prop-2-en-1-one]: the IC50 on ITK (setting [1]) and at BTK (setting [2]) was over 500 nM in each case.
Take `C=CC(=O)N1CC[C@H](Oc2nc(Nc3ncc(C)s3)cc3c2ccn3Cc2ccccn2)C1` [Example 117, (S)-1-(3-((6-((5-methylthiazol-2-yl)amino)-1-(pyridin-2-ylmethyl)-1H-pyrrolo[3,2-c]pyridin-4-yl)oxy)pyrrolidin-1-yl)prop-2-en-1-one]: the IC50 on ITK (setting [3]) and on BTK (setting [4]) was at most 20 nM throughout.
